Consider 1 compound from patent publication US20130053435A1, “Methods of Treating Alcohol Intoxication, Alcohol Use Disorders and Alcohol Abuse Which Comprises the Administration of Dihydromyricetin” (priority 2011, published 2013).

The test system of the assay is T1, GABAARs.
T1 construct: rows headed: effect on GABAAR-currents; effect on GABAAR-currents; other: zolpidem 0.3 μM, DGCs of EtOH group
In words: Whole-cell patch-clamp, DGCs in hippocampal slices 48 hr after in vivo treatment. It counts as cell-based, rat. Particulars: zolpidem 0.3 μM. On the procedure:
Transverse slices (400 μm) of dorsal hippocampus were obtained with a Vibratome (VT 100, Technical Products International, St. Louis, Mo.) and standard techniques known in the art. Slices were continuously perfused with artificial cerebrospinal fluid (ACSF). See Liang, J., et al. (2007) J Neurosci 27:12367-12377.
Whole-cell patch-clamp recordings were obtained at 34±0.5° C. from cells located in the DG layer at a holding potential of −70 mV, during perfusion with artificial cerebrospinal fluid (ACSF, 125 mM NaCl, 2.5 mM KCl, 2 mM CaCl2, 2 mM MgCl2, 26 mM NaHCO3, and 10 mM D-glucose). The ACSF was continuously bubbled with 95% O2-5% CO2 to ensure adequate oxygenation of slices and a pH of 7.4. Patch electrodes were pulled from thin-wall borosilicate glass pipettes with resistances of 7.5-9 MΩ and were filled with pipette solution (i.e. 137 mM CsCl, 2 mM MgCl2, 1 mM CaCl2, 11 mM EGTA, 10 mM HEPES and 3 mM ATP, pH adjusted to 7.30 with CsOH). Signals were recorded in voltage-clamp mode with a […] amplifier (Molecular Devices, Sunnyvale, Calif.). Whole cell access resistances were in the range of <25 MΩ before electrical compensation by about 70%. During voltage-clamp recordings, access resistance was monitored by measuring the size of the capacitative transient in response to a 5 mV step command and the data were abandoned if changes >20% were encountered. At least 10 min was allowed for equilibration of the pipette solution with the intracellular milieu before commencing mIPSC recordings. Intracellular signal was low-pass filtered at 3 kHz and data were acquired with Digidata 1440A and software CLAMPEX 10 (Molecular Devices) at a sampling frequency of 20 kHz.
Pharmacologically-isolated GABAAR-mediated mIPSCs were recorded as previously described (Liang (2007) and Shen (2011)). […] Data were analyzed using the Clampfit (Version 9.0, Molecular Devices) and the MiniAnalysis Program (versions 6.0.7, Synaptosoft, Decatur, Ga.).
The MiniAnalysis program (Synaptosoft, Decatur, Ga.) was used to analyze mIPSCs. Itonic is the averaged baseline currents of a given recording period. Itonic amplitude was calculated as the difference between the holding currents measured before and after picrotoxin (100 μM) or bicuculline (10 μM). See Wei, W., et al. (2004) J Neurosci 24, 8379-8382; Liang (2007); and Shen (2011). Briefly, the recordings were low-pass filtered off-line (Clampfit software) at 2 kHz. The mIPSCs were detected (Mini Analysis Program, version 6.0.7) with threshold criteria of 8 pA amplitude and 20 pA*ms charge transfer. The frequency of mIPSCs was determined from all automatically detected events in a given 100 s recording period. For kinetic analysis, only single event mIPSCs with a stable baseline, sharp rising phase (10 to 90% rise time), and exponential decay were chosen during visual inspection of the recording trace. Double and multiple peak mIPSCs were excluded. At least 100 individual mIPSC events were recorded under each experimental condition. The mIPSC kinetics was obtained from analysis of the averaged chosen single events aligned with half rise time in each cell. Decay time constants were obtained by fitting a double exponential to the falling phase of the averaged mIPSCs. Itonic magnitudes were obtained from the averaged baseline current of a given recording period. Itonic amplitude was calculated as the difference between the holding currents measured before and after the application of picrotoxin (50 μM) or bicuculline (10 μM). See Liang J et al (2007); Shen (2011); Hamann (2002); and Mangan P S, et al. (2005) Mol Pharmacol 67(3):775-788. The investigator performing the recordings and mIPSC analysis was blind to the treatment (vehicle, EtOH, E+D, or D) that the rats received.
After 48 hr withdrawal, whole-cell GABAAR-mediated currents were recorded on DGCs in hippocampal slices. In the vehicle group, bath application of EtOH (60 mM) enhanced Itonic from 28.8±3.1 to 62.1±3.3 pA (FIG. 13, panels A, G). […]

Turning to `Cc1ccc(-c2nc3ccc(C)cn3c2CC(=O)N(C)C)cc1` [Zolpidem, zolpidem, reference compound], the “effect on GABAAR-currents” value (DGCs of DHM group as in vehicle group) is on record as “potentiation” and the “effect on GABAAR-currents” value (DGCs of EtOH group) is given as “did not affect GABAAR-currents”.
